Source: patent US8236822B2, “Compounds as cannabinoid receptor ligands” (Abbott Laboratories, priority 2009, dated 2012)
Like-named read-outs stand apart in the source and are kept apart here.

Columns and labels:
rat CB2 receptors = target: T1, rat CB2 receptors (Rattus norvegicus, UniProt Q9QZN9); test: rat CB2 radioligand binding assay ([3H]CP-55,940 competition)
T1 construct: expressed in transfected cells; host or cells: HEK293
T1 sequence (Q9QZN9 1-360): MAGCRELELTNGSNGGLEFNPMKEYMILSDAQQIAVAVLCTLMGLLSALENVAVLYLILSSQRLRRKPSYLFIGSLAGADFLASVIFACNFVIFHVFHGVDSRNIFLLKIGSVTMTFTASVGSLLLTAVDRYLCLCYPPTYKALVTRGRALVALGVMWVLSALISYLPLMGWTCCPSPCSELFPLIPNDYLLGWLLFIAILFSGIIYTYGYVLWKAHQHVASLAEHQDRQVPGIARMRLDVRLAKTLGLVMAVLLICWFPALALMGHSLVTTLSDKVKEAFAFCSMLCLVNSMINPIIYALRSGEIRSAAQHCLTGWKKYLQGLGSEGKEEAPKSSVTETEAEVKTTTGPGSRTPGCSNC
Description: (§1) In Vitro Methods—CB2 and CB1Radioligand Binding Assays:
(§2) The CB1 and CB2 radioligand binding assays described herein are utilized to ascertain the selectivity of compounds of the present application for binding to CB2 relative to CB′ receptors.
(§3) HEK293 cells stably expressing rat CB2 receptors were grown until a confluent monolayer was formed. Briefly, the cells were harvested and homogenized in TE buffer (50 mM Tris-HCl, 1 mM MgCl2, and 1 mM EDTA) using a polytron for 2×10 second bursts in the presence of protease inhibitors, followed by centrifugation at 45,000×g for 20 minutes. The final membrane pellet was re-homogenized in storage buffer (50 mM Tris-HCl, 1 mM MgCl2, and 1 mM EDTA and 10% sucrose) and frozen at −78° C. until used. Saturation binding reactions were initiated by the addition of membrane preparation (protein concentration of 20 μg/well for rat CB2) into wells of a deep well plate containing [^3H]CP-55,940 (120 Ci/mmol, a nonselective CB agonist commercially available from Tocris) in assay buffer (50 mM Tris, 2.5 mM EDTA, 5 mM MgCl2, and 0.5 mg/mL fatty acid free BSA, pH 7.4). After 45 min incubation at 30° C., binding reaction was terminated by the addition of 300 μL/well of cold assay buffer followed by rapid vacuum filtration through a UniFilter-96 GF/C filter plates (pre-soaked in 1 mg/mL BSA for 2 hours). The bound activity was counted in a TopCount using Microscint-20. Saturation experiments were conducted with twelve concentrations of [^3H]CP-55,940 ranging from 0.01 to 8 nM. Competition experiments were conducted with 0.5 nM [^3H]CP-55,940 and five concentrations of displacing ligands selected from the range of 0.01 nM to 10 μM. The addition of 10 μM unlabeled CP-55,940 (Tocris, Ellisville, Mo.) was used to assess nonspecific binding.

human CB2 receptors = target: T2, human CB2 receptors (Homo sapiens, UniProt P34972); test: human CB2 radioligand binding assay ([3H]CP-55,940 competition)
T2 construct: expressed in transfected cells; host or cells: HEK293
Description: as §1, §2
as §3, with “expressing human” for “expressing rat”, “of 5” for “of 20”, “for human” for “for rat”, “After 90” for “After 45”, “concentrations (0.01” for “concentrations of displacing ligands selected from the range of 0.01”, “10 μM) of displacing ligands.” for “10 μM.”

T2 sequence (P34972 whole entry): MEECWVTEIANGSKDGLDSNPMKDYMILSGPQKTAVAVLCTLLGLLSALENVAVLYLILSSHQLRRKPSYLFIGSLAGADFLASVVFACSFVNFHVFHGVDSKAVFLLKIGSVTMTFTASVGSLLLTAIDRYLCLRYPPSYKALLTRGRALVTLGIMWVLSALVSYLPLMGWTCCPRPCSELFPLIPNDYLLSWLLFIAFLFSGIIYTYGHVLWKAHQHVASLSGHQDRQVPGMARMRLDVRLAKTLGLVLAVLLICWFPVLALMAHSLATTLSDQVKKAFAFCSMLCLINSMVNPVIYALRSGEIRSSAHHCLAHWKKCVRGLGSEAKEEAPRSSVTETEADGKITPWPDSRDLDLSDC

Question: For `CCCCn1/c(=N/C(=O)c2cc(C(F)(F)F)ccc2OCCNC(C)(C)C)cc(C(C)(C)C)n1C` [Example 4, 2-[2-(tert-butylamino)ethoxy]-N-[(3E)-2-butyl-5-tert-butyl-1-methyl-1,2-dihydro-3H-pyrazol-3-ylidene]-5-(trifluoromethyl)benzamide], which Ki (rat CB2 receptors; HEK293 membranes expressing rat CB2, 0.5 nM [3H]CP-55,940, read-out: rat CB2 binding (Ki)) is on record?
Answer: The Ki was 104 nM.

Question: For `Cn1c(C(C)(C)C)c/c(=N\C(=O)c2cc(C(F)(F)F)ccc2OCCNC(C)(C)C)n1CC1CCC1` [Example 5, 2-[2-(tert-butylamino)ethoxy]-N-[(3E)-5-tert-butyl-2-(cyclobutylmethyl)-1-methyl-1,2-dihydro-3H-pyrazol-3-ylidene]-5-(trifluoromethyl)benzamide], which Ki (human CB2 receptors) is on record?
Answer: Its Ki is 199 nM.

Question: Which results are given for `Cn1c(C(C)(C)C)c/c(=N\C(=O)c2cc(C(F)(F)F)ccc2OCCNC(C)(C)C)n1CC1CC1` [Example 1, 2-[2-(tert-butylamino)ethoxy]-N-[(3E)-5-tert-butyl-2-(cyclopropylmethyl)-1-methyl-1,2-dihydro-3H-pyrazol-3-ylidene]-5-(trifluoromethyl)benzamide]?
Answer: Ki (human CB2 receptors): 123 nM; Ki (rat CB2 receptors): 44.2 nM

Question: With `Cn1c(C(C)(C)C)c/c(=N\C(=O)c2cc(C(F)(F)F)ccc2OC2CN(C(C)(C)C)C2)n1CC1CC1` [Example 2, 2-[(1-tert-butylazetidin-3-yl)oxy]-N-[(3E)-5-tert-butyl-2-(cyclopropylmethyl)-1-methyl-1,2-dihydro-3H-pyrazol-3-ylidene]-5-(trifluoromethyl)benzamide] as the compound, how does the Ki (rat CB2 receptors) read?
Answer: The Ki was 459 nM.

Question: How did the Ki (human CB2 receptors) turn out when `CCCCn1nc(C(C)(C)C)s/c1=N\C(=O)c1cc(C(F)(F)F)ccc1OC1CN(C(C)(C)C)C1` [Example 3, 2-[(1-tert-butylazetidin-3-yl)oxy]-N-[(2Z)-3-butyl-5-tert-butyl-1,3,4-thiadiazol-2(3H)-ylidene]-5-(trifluoromethyl)benzamide] was run?
Answer: Its Ki is 46.4 nM.

Question: What about the Ki (rat CB2 receptors) of the same compound?
Answer: The Ki was 29.1 nM.

Question: For `CN1CC[C@H](Oc2ccc(C(F)(F)F)cc2C(=O)/N=c2\cc(C(C)(C)C)n(C)n2CC2CCC2)C1` [Example 6, N-[(3E)-5-tert-butyl-2-(cyclobutylmethyl)-1-methyl-1,2-dihydro-3H-pyrazol-3-ylidene]-2-{[(3S)-1-methylpyrrolidin-3-yl]oxy}-5-(trifluoromethyl)benzamide], which Ki (rat CB2 receptors) is on record?
Answer: The Ki was 420 nM.
